# Measured values reported in patent US8044052B2, “Biaryl ether urea compounds” (Pfizer Inc., priority 2006, dated 2011).
# Molecular target: T1, Human FAAH (Homo sapiens, UniProt O00519)
# T1 construct: made in house
# T1 sequence (O00519 1-579): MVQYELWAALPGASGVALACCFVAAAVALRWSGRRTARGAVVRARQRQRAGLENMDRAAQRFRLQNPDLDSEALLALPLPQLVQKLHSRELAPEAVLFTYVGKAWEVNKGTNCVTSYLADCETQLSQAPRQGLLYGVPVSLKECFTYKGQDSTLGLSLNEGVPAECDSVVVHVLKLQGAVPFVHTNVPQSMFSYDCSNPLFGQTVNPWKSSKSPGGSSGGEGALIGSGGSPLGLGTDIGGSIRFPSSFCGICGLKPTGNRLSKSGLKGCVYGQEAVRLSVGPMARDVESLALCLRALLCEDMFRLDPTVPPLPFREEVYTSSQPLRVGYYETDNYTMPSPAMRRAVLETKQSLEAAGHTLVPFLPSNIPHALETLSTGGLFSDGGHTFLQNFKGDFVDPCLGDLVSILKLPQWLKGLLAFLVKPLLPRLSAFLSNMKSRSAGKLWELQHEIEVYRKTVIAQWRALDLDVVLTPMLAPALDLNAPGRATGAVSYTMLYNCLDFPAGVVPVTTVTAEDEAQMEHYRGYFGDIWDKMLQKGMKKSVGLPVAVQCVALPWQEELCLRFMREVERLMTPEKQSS
# Test: FAAH assay (glutamate dehydrogenase-coupled, oleamide substrate, absorbance at 340 nm)
# Format: biochemical
# Conditions: irreversible inhibition, 1-4 nM FAAH, pH 7.4, 30° C., 90 min
row,Compound,hFAAH kinact/Ki [M⁻¹ s⁻¹]
1,N-(pyridazin-3-yl)-4-(3-{[phenyl-2-yl]oxy}benzylidene)piperidine-1-carboxamide [Example 32],973
2,"O=C(Nc1ccc2cc[nH]c2n1)N1CCC(=Cc2cccc(Oc3ccc(C(F)(F)F)cn3)c2)CC1 [Example 13, N-1H-pyrrolo[2,3-b]pyridin-6-yl-4-(3-{[5-(trifluoromethyl)pyridin-2-yl]oxy}benzylidene) piperidine-1-carboxamide]",3870
3,4-(3-ethoxy-5-{[5-(trifluoromethyl)pyridin-2-yl]oxy}benzylidene)-N-pyridin-3-ylpiperidine-1-carboxamide trifluoroacetate [Example 74],9870

# Same assay, conditions: irreversible inhibition, 1-4 nM FAAH, pH 7.4, 30° C., 90 min, read-out: hFAAH kinact/Ki
row,Compound,kinact/KI [M⁻¹ s⁻¹]
1,"COc1ccc(-c2cnc(Oc3cccc(C=C4CCN(C(=O)Nc5cccnn5)CC4)c3)nc2)cc1 [Example 104, 4-(3-{[5-(4-methoxyphenyl)pyrimidin-2-yl]oxy}benzylidene)-N-pyridazin-3-ylpiperidine-1-carboxamide]",105
2,"CCc1cnc(Oc2cccc(C=C3CCN(C(=O)Nc4cccnn4)CC3)c2)nc1 [Example 107, 4-{3-[(5-ethylpyrimidin-2-yl)oxy]benzylidene}-N-pyridazin-3-ylpiperidine-1-carboxamide]",6220
3,"O=C(Nc1cccnc1)N1CCC(=Cc2cccc(Oc3ccc(C(F)(F)F)cn3)c2)CC1 [Example 1, N-pyridin-3-yl-4-(3-{[5-(trifluoromethyl)pyridin-2-yl]oxy}benzylidene)piperidine-1-carboxamide]",13300
4,"O=C(Nc1cccnn1)N1CCC(=Cc2cccc(Oc3nc4ccccc4s3)c2)CC1 [Example 124, 4-[3-(1,3-benzothiazol-2-yloxy)benzylidene]-N-pyridazin-3-ylpiperidine-1-carboxamide]",7400
5,"Cc1noc(NC(=O)N2CCC(=Cc3cccc(Oc4ccc(Br)cn4)c3)CC2)c1C [Example 35, 4-(3-(5-bromopyridin-2-yloxy)benzylidene)-N-(3,4-dimethylisoxazol-5-yl)piperidine-1-carboxamide]",3670
6,"O=C(Nc1cnoc1)N1CCC(=Cc2cccc(Oc3ccc(C(F)(F)F)cn3)c2)CC1 [Example 75, N-isoxazol-4-yl-4-(3-{[5-(trifluoromethyl)pyridin-2-yl]oxy}benzylidene)piperidine-1-carboxamide]",3620
7,"Cc1noc(NC(=O)N2CCC(=Cc3cccc(Oc4ccc(F)cc4)c3)CC2)c1C [Example 19, N-(3,4-dimethylisoxazol-5-yl)-4-[3-(4-fluorophenoxy)benzylidene]piperidine-1-carboxamide]",3450
8,"O=C(Nc1onc2ccccc12)N1CCC(=Cc2cccc(Oc3ccc(C(F)(F)F)cn3)c2)CC1 [Example 6, N-2,1-benzisoxazol-3-yl-4-(3-{[5-(trifluoromethyl)pyridin-2-yl]oxy}benzylidene)piperidine-1-carboxamide]",2510
9,"CCc1cc(Oc2cccc(C=C3CCN(C(=O)Nc4cccnn4)CC3)c2)nc(C(F)(F)F)n1 [Example 115, 4-(3-{[6-ethyl-2-(trifluoromethyl)pyrimidin-4-yl]oxy}benzylidene)-N-pyridazin-3-ylpiperidine-1-carboxamide]",< 11.2
10,"Cc1ccc(C=C2CCN(C(=O)Nc3cccnc3)CC2)cc1Oc1ccc(C(F)(F)F)cn1 [Example 60, 4-(4-methyl-3-(5-(trifluoromethyl)pyridin-2-yloxy)benzylidene)-N-(pyridin-3-yl)piperidine-1-carboxamide]",1580
11,"Cc1noc(NC(=O)N2CCC(=Cc3cccc(Oc4ccc(C(F)(F)F)cn4)c3)CC2)c1C [Example 2, N-(3,4-dimethylisoxazol-5-yl)-4-(3-{[5-(trifluoromethyl)pyridin-2-yl]oxy}benzylidene)piperidine-1-carboxamide]",5050
12,"N#Cc1ccc(Oc2cccc(C=C3CCN(C(=O)Nc4cccnc4)CC3)c2)nc1 [Example 30, 4-(3-(5-cyanopyridin-2-yloxy)benzylidene)-N-(pyridin-3-yl)piperidine-1-carboxamide]",3540
13,"C#CCCCOc1ccc(Oc2cccc(C=C3CCN(C(=O)Nc4cccnn4)CC3)c2)nc1 [Example 90, 4-(3-(5-(pent-4-ynyloxy)pyridin-2-yloxy)benzylidene)-N-(Pyridazin-3-yl)piperidine-1-carboxamide]",7600
14,"O=C(Nc1cccnn1)N1CCC(=Cc2cccc(Oc3ccc(Br)cn3)c2)CC1 [Example 34, 4-(3-(5-bromopyridin-2-yloxy)benzylidene)-N-(pyridazin-3-yl)piperidine-1-carboxamide]",50900
15,"O=C(Nc1cnccn1)N1CCC(=Cc2cccc(Oc3ccc(C(F)(F)F)cn3)c2)CC1 [Example 4, N-pyrazin-2-yl-4-(3-{[5-(trifluoromethyl)pyridin-2-yl]oxy}benzylidene)piperidine-1-carboxamide]",25800
16,"COc1cnc(NC(=O)N2CCC(=Cc3cccc(Oc4ccc(C(F)(F)F)cn4)c3)CC2)cn1 [Example 12, N-(5-methoxypyrazin-2-yl)-4-(3-{[5-(trifluoromethyl)pyridin-2-yl]oxy}benzylidene)piperidine-1-carboxamide]",10800

row,Compound,kinact/KI [M⁻¹ s⁻¹]
1,"CC(C)Oc1ccc(Oc2cccc(C=C3CCN(C(=O)Nc4cccnn4)CC3)c2)nc1 [Example 52, 4-(3-(5-isopropoxypyridin-2-yloxy)benzylidene)-N-(pyridazin-3-yl)piperidine-1-carboxamide]",4090
2,"O=C(Nc1cc(O)[nH]n1)N1CCC(=Cc2cccc(Oc3ccc(C(F)(F)F)cn3)c2)CC1 [Example 143, N-(5-hydroxy-1H-pyrazol-3-yl)-4-(3-{[5-(trifluoromethyl)pyridin-2-yl]oxy}benzylidene)piperidine-1-carboxamide]",412
3,"CCc1ccnc(NC(=O)N2CCC(=Cc3cccc(Oc4ccc(C(F)(F)F)cn4)c3)CC2)c1 [Example 141, N-(4-ethylpyridin-2-yl)-4-(3-{[5-(trifluoromethyl)pyridin-2-yl]oxy}benzylidene)piperidine-1-carboxamide]",117
4,"COc1ccc(NC(=O)N2CCC(=Cc3cccc(Oc4ccc(C(F)(F)F)cn4)c3)CC2)cn1 [Example 8, N-(6-methoxypyridin-3-yl)-4-(3-{[5-(trifluoromethyl)pyridin-2-yl]oxy}benzylidene)piperidine-1-carboxamide]",10100
5,"O=C(Nc1cccnn1)N1CCC(=Cc2cccc(Oc3ncc(C4CC4)cn3)c2)CC1 [Example 106, 4-{3-[(5-cyclopropylpyrimidin-2-yl)oxy]benzylidene}-N-pyridazin-3-ylpiperidine-1-carboxamide]",3330
6,"O=C(Nc1cccnn1)N1CCC(=Cc2cccc(Oc3cnc4ccccc4n3)c2)CC1 [Example 122, N-pyridazin-3-yl-4-[3-(quinoxalin-2-yloxy)benzylidene]piperidine-1-carboxamide]",909
7,"CC(=C1CCN(C(=O)Nc2cccnc2)CC1)c1cccc(Oc2ccc(C(F)(F)F)cn2)c1 [Example 67, N-(pyridin-3-yl)-4-(1-(3-(5-(trifluoromethyl)pyridin-2-yloxy)phenyl)ethylidene)piperidine-1-carboxamide]",5980
8,"Cc1cnc(Oc2cccc(C=C3CCN(C(=O)Nc4cccnn4)CC3)c2)nc1 [Example 109, 4-{3-[(5-methylpyrimidin-2-yl)oxy]benzylidene}-N-pyridazin-3-ylpiperidine-1-carboxamide]",1240
9,"O=C(Nc1cccnn1)N1CCC(=Cc2cccc(Oc3ncc(Br)cn3)c2)CC1 [Example 37, 4-(3-(5-bromopyrimidin-2-yloxy)benzylidene)-N-(pyridazin-3-yl)piperidine-1-carboxamide]",15100
10,"O=C(Nc1cccnn1)N1CCC(=Cc2cccc(Oc3ccc(C(F)(F)F)cn3)c2)CC1 [Example 5, N-pyridazin-3-yl-4-(3-{[5-(trifluoromethyl)pyridin-2-yl]oxy}benzylidene)piperidine-1-carboxamide]",24700
11,"O=C(Nc1cccnn1)N1CCC(=Cc2cc(Br)cc(Oc3ccc(C(F)(F)F)cn3)c2)CC1 [Example 63, 4-(3-bromo-5-(5-(trifluoromethyl)pyridin-2-yloxy)benzylidene)-N-(pyridazin-3-yl)piperidine-1-carboxamide]",2530
12,"Cc1nnc(Oc2cccc(C=C3CCN(C(=O)Nc4cccnn4)CC3)c2)c2ccccc12 [Example 119, 4-{3-[(4-methylphthalazin-1-yl)oxy]benzylidene}-N-pyridazin-3-ylpiperidine-1-carboxamide]",77.7
13,"O=C(Nc1ccc(Br)nc1)N1CCC(=Cc2cccc(Oc3ccc(C(F)(F)F)cn3)c2)CC1 [Example 28, 4-(3-(5-(trifluoromethyl)pyridin-2-yloxy)benzylidene)-N-(6-bromopyridin-3-yl)piperidine-1-carboxamide]",6190
14,"Cc1nccnc1NC(=O)N1CCC(=Cc2cccc(Oc3ccc(C(F)(F)F)cn3)c2)CC1 [Example 24, N-(3-methylpyrazin-2-yl)-4-(3-{[5-(trifluoromethyl)pyridin-2-yl]oxy}benzylidene)piperidine-1-carboxamide]",2410
15,"O=C(Nc1cccnc1)N1CCC(=Cc2cccc(Oc3ccccc3)n2)CC1 [Example 92, 4-((6-phenoxypyridin-2-yl)methylene)-N-(pyridin-3-yl)piperidine-1-carboxamide]",894
